The record followed here is US12428396B2, “Fused pyridine ring derivative, preparation method therefor, and pharmaceutical use thereof” (priority 2019, dated 2025).

One series deals with T1, HIV-1 capsid protein (Human immunodeficiency virus type 1 group M subtype B, UniProt P12493).
T1 construct: made in house; host or cells: E. coli (pET30 vector)
Briefly: In vitro polymerization of HIV-1 capsid protein (His-CA/GST-CA, Eu cryptate/XL665 energy transfer). It is filed as biochemical, HIV-1 NL4-3. The following applies: for Imax: 37° C., 2 h incubation. The source says:
• 1. MAb Anti GST-Eu cryptate (Cisbio) • 2. MAb Anti 6HIS-XL665 (Cisbio) • 3. His tag HIV-1 capsid protein (hereinafter referred to as His-CA) • 4. GST tag HIV-1 capsid protein (hereinafter referred to as GST-CA) • 5. 384-well unbound surface microplate, white (Corning) • 6. Microplate reader (BMG)
The HIV-1 capsid proteins aggregate spontaneously in high-salt solutions. Capsid protein sequences derived from HIV-1 NL4-3 strains (GeneBank AF324493.2) were separately tagged with 6His tag and GST tag sequences at the C-terminus, cloned into pET30 vectors, and expressed and separately tagged for expression in E. coli system and purified. His-CA and GST-CA were mixed at high-salt concentrations, and the level of polymerization of capsid proteins was detected using GST antibody labeled with Eu3+-Cryptate (energy donor) and His antibody labeled with XL665 (energy acceptor). Since the excitation spectrum of Eu3+-Cryptate overlapped with the excitation spectrum of XL665, when the capsid proteins with these two tags formed a poly complex, the energy donor and the energy acceptor could be drawn to a sufficiently close distance, the energy donor released part of the captured energy under the excitation of an external light source (such as a xenon lamp or a laser), with the emission wavelength being 620 nM, part of the resonance was transferred to the energy acceptor to excite the energy acceptor, with the emission wavelength being 665 nM, and an optical signal was generated, the signal intensity of which was in direct proportion to the degree of polymerization of the tag proteins.
His-CA was diluted to 2 μM in a clean tube with protein diluent (50 mM Tris-HCl, pH 8.0, 50 mM NaCl, 0.4 mM MgCl2, 0.05% Triton X-100, 2% glycerol) while MAb Anti 6HIS-XL665 at a final concentration of 260 nM was added; GST-CA was diluted to 20 nM with protein diluent in another clean tube while MAb Anti GST-Eu cryptate at a final concentration of 3.33 nM was added and incubated on ice for half an hour. Compounds were first formulated into a concentration of 20 mM with DMSO, then diluted to a first concentration of 2 mM with DMSO and serially 5-fold diluted to the 8th concentration. Control wells were set and added with DMSO, and serially-diluted compounds were then 20-fold diluted with protein diluent to 10-fold working concentrations. Preparation of capsid protein polymerization liquid at 2-fold concentration: 50 mM Tris-HCl, pH 8.0, 1 M NaCl, 800 mM KF; to a pre-cooled white round-bottomed 384-well plate were added 4 uL of His-CA-His antibody mixture, 4 uL of GST-CA-GST antibody mixture, 2 uL of the compounds at 10-fold concentration and 10 uL of capsid protein polymerization reaction liquid at 2-fold concentration, the plate was sealed with a light-shielding sealing plate membrane after uniformly mixing, and the reaction plate was placed in a 37° C. incubator for incubation for 2 h. After incubation, the samples were excited with an excitation light at 337 nM, and signal values at 620 nM and 665 nM were collected for detection, wherein Ratio values=(665 nM/620 nM signal)×10000 was calculated according to the signal values. IC50 values for compounds were calculated using Graphpad Prism software based on each concentration of the compounds and the corresponding Ratio values.

Series [1] can be described thus: Thermodynamic stability test of atropisomerism (LC-MS). It is filed as physicochemical. How it is done:
Agilent 1200 DAD model LC-MS; column: waters sunfire C18, 4.6×75 mm, 3.5 μm; mobile phase: water (0.1% trifluoroacetic acid):acetonitrile (0.1% trifluoroacetic acid).
The compounds of Examples 1-1a, 1-1b were atropisomers of each other and had different retention times in the LC-MS spectra, and the tautomerism of the atropisomers could be detected by LC-MS.
Compound 1-1a (1.5 mg) was dissolved in acetonitrile (1.0 mL), and the reaction solution was heated at 40° C. for 1.0 h, and the change in purity of compound 1-1a was detected by LC-MS. Compound 1-1a (1.5 mg) was dissolved in dimethyl sulfoxide (1.0 mL), and the reaction solution was heated at 120° C. for 3.0 h, and the change in purity of compound 1-1a was detected by LC-MS.
The same procedure was used to test the change in purity of compound 1-1b at 40° C. and 120° C.
The compounds of Examples 5-1, 5-2 were atropisomers of each other and had different retention times in the LC-MS spectra, and the tautomerism of the atropisomers could be detected by LC-MS.
Compound 5-1 (1.0 mg) was dissolved in DMSO (1.0 mL), and the reaction solution was heated at 37° C. and 120° C. for 3.0 h, respectively, and the change in purity of compound 5-1 was detected by LC-MS.

With `CC(C)(C#Cc1nc([C@H](Cc2cc(F)cc(F)c2)NC(=O)Cn2nc(C(F)(F)F)c3c2C(F)(F)[C@@H]2C[C@H]32)c(-c2ccc(Cl)c3c(NS(=O)(=O)C4CC4)nn(CC(F)(F)F)c23)c2c1CCC2)S(C)(=O)=O` (atropisomer, axis not shown; (aR)) [Example 2, N—((S)-1-((R)-4-(4-chloro-3-(cyclopropylsulfonamide)-1-(2,2,2-trifluoroethyl)-1H-indazol-7-yl)-1-(3-methyl-3-(methylsulfonyl)but-1-yn-1-yl)-6,7-dihydro-5H-cyclopenta[c]pyridin-3-yl)-2-(3,5-difluorophenyl)ethyl)-2-((3bS,4aR)-5,5-difluoro-3-(trifluoromethyl)-3 b,4,4a,5-tetrahydro-1H-cyclopropa[3,4]cyclopenta[1,2-c]pyrazol-1-yl)acetamide], at HIV-1 capsid protein, inhibition was half-maximal at 19 nM (IC50) and the Imax worked out at 100%.
As to `CC(C)(C#Cc1nc([C@H](Cc2cc(F)cc(F)c2)NC(=O)Cn2nc(C(F)(F)F)c3c2C(F)(F)[C@@H]2C[C@H]32)c(-c2ccc(Cl)c3c(NS(=O)(=O)C4CC4)nn(CC(F)(F)F)c23)c2c1CCC2)S(=O)(=O)C1CC1` (atropisomer, axis not shown; (aR)) [Example 4, N—((S)-1-((R)-4-(4-chloro-3-(cyclopropylsulfonamide)-1-(2,2,2-trifluoroethyl)-1H-indazol-7-yl)-1-(3-(cyclopropylsulfonyl)-3-methyl-but-1-yn-1-yl)-6,7-dihydro-5H-cyclopenta [c]pyridin-3-yl)-2-(3,5-difluorophenyl)ethyl)-2-((3bS,4aR)-5,5-difluoro-3-(trifluoromethyl)-3b,4,4a,5-tetrahydro-1H-cyclopropa[3,4]cyclopenta[1,2-c]pyrazol-1-1)acetamide], on HIV-1 capsid protein, 68 nM corresponded to half-maximal inhibition (IC50) and the Imax was 91%.
The like results for `CC(C)(C#Cc1nc([C@H](Cc2cc(F)cc(F)c2)NC(=O)Cn2nc(C(F)(F)F)c3c2C(F)(F)[C@@H]2C[C@H]32)c(-c2ccc(Cl)c3c(NS(C)(=O)=O)nn(CC(F)(F)F)c23)c2ccccc12)S(C)(=O)=O` (atropisomer, axis not shown; (aR)) [Example 6, N—((S)-1-((R)-4-(4-chloro-3-(methanesulfonamido)-1-(2,2,2-trifluoroethyl)-1H-indazol-7-yl)-1-(3-methyl-3-(methanesulfonyl)but-1-yn-1-yl)isoquinolin-3-yl)-2-(3,5-difluorophenyl)ethyl)-2-((3bS,4aR)-5,5-difluoro-3-(trifluoromethyl)-3b,4,4a,5-tetrahydro-1H-cyclopropa[3,4]cyclopenta[1,2-c]pyrazol-1-yl)acetamide] were, in that order, 107 nM and 75%.
As to `CC(C)(C#Cc1nc([C@H](Cc2cc(F)cc(F)c2)NC(=O)Cn2nc(C(F)(F)F)c3c2C(F)(F)[C@@H]2C[C@H]32)c(-c2ccc(Cl)c3c(NS(C)(=O)=O)nn(CC(F)(F)F)c23)c2c1CCC2)S(=O)(=O)C1CC1` (atropisomer, axis not shown; (aR)) [Example 3, N—((S)-1-((R)-4-(4-chloro-3-(methanesulfonamido)-1-(2,2,2-trifluoroethyl)-1H-indazol-7-yl)-1-(3-(cyclopropylsulfonyl)-3-methyl-but-1-yn-1-yl)-6,7-dihydro-5H-cyclopenta[c]pyridin-3-yl)-2-(3,5-difluorophenyl)ethyl)-2-((3bS,4aR)-5,5-difluoro-3-(trifluoromethyl)-3b,4,4a,5-tetrahydro-1H-cyclopropa[3,4]cyclopenta[1,2-c]pyrazol-1-yl)acetamide], at HIV-1 capsid protein, the IC50 – broadly, the concentration needed to halve the response being measured – was found to be 24 nM and the Imax was 98%.
As to `CC(C)(C#Cc1nc([C@H](Cc2cc(F)cc(F)c2)NC(=O)Cn2nc(C(F)(F)F)c3c2C(F)(F)[C@@H]2C[C@H]32)c(-c2ccc(Cl)c3c(NS(C)(=O)=O)nn(CC(F)(F)F)c23)c2c1CCCC2)S(C)(=O)=O` (single isomer, unassigned) [Example 5-1], the “atropisomer stability (change in purity by LC-MS)” value in series [1] (heated at 37° C. for 3.0 h in DMSO) is “stable single-configuration compound”. In series [1] (heated at 120° C. for 3.0 h in dimethyl sulfoxide), the “atropisomer stability (change in purity by LC-MS)” value is “stable single-configuration compound”. At HIV-1 capsid protein, this molecule registered a 50% inhibitory concentration (IC50) of 37 nM and an Imax of 108%.
